Source: US8497274B2, “Heterocyclic compound and use thereof” (Takeda Pharmaceutical Company Limited, priority 2008, dated 2013)
pIC50: −log10 of the molar value.

Tests used:
BRAF (V600E) kinase = BRAF (V600E) kinase (Homo sapiens (Human), UniProt P15056, V600E); assay: BRAF (V600E) kinase inhibitory activity; assay type: biochemical; settings: BRAF (V600E) enzyme, GSTP1-MEK1 (K96R) substrate, compound 1.0 μM; read-out: Inhibitory rate (%) at 1.0 μM
Protocol: A test compound (2.5 μL) dissolved in dimethyl sulfoxide (DMSO) was added to 37.5 μL of a reaction solution (25 mM HEPES (pH 7.5), 10 mM magnesium acetate, 1 mM dithiothreitol) containing 30 ng of BRAF (V600E) enzyme and 250 ng of recombinant protein GSTP1-MEK1 (K96R) prepared using FreeStyle 293 expression system (Invitrogen), and the mixture was incubated at room temperature for 10 min. 10 μL of ATP solution (2.5 μM ATP, 0.1 μCi [γ-^32P]ATP) was added to the obtained mixture, and the mixture was reacted at room temperature for 20 min. The reaction was quenched by adding 50 μL of ice-cooled 20% trichloroacetic acid (Wako Pure Chemical Industries, Ltd.) to the reaction solution. The reaction solution was allowed to stand at 4° C. for 30 min., and the acid-precipitable fraction was transferred to GF/C filter plate (Millipore Corporation) using cell harvester (PerkinElmer). The plate was dried at 45° C. for 60 min., and 40 μL of MicroScinti 0 (PerkinElmer) was added thereto. The radioactivity was measured using TopCount (PerkinElmer). The kinase inhibitory rate (%) of the test compound was calculated by the following formula: Inhibitory rate (%)=(1−(count of test compound−blank)÷(control−blank))×100
The count of the solution reacted without addition of the compound was used as a “control”, and the count of the solution without the compound and enzyme was used as a “blank”.

[1] = test system: human colon cancer cell HT-29; assay: Colon cancer cell HT-29 growth suppressive activity in vitro; assay type: cell-based; settings: for pIC50: 72 h, HT-29 cells, 3 days culture, SRB staining; for inhibition at 10 µM: HT-29 cell proliferation, compound 10 μM, read-out: Inhibitory rate (%) at 10 μM
Protocol: 100 μL of a cell suspension (3,000 cells/well) of human colon cancer cell HT-29 (purchased from ATCC) was plated in a 96-well plate, and the cells were cultured at 37° C. in the presence of 5% CO2. The next day, 100 μL of culture medium containing each test compound diluted in 2-fold dilution was added, and the cells were cultured for 3 days. The culture medium containing the test compound was removed, and the cells were washed with phosphate buffered saline (MP Biochemicals). A 50% trichloroacetic acid solution was added to the final concentration of 10% (v/v), and the mixture was stood overnight at 4° C., whereby the cells were fixed to the plate. Then, a dye SRB 0.4% (w/v) solution (dissolved in 1% acetic acid) was added at 50 μl/well, whereby the cell protein was fixed and stained (Skehan et al., Journal Of National Cancer Institute, vol. 82, pp. 1107-1112, 1990). The cells were washed 3 times with 1% acetic acid solution (200 μL/well), and 100 μL of an extract (10 mM Tris buffer) was added to extract the dye. The absorbance at an absorption wavelength 550 nm was measured, and cell amount was measured as a protein amount. Taking the protein amount of the control group free of the test compound solution as 100%, the proportion of the residual protein amount of each treatment group was determined and the concentration of the compound necessary for suppressing the residual cell amount to 50% of the control (IC50 value) was calculated. In addition, cell proliferation inhibitory rate (%) of the test compound at compound concentration 10 μM was calculated by the following formula. The results are shown in Table 3-B. Inhibitory rate (%)=(1−(absorbance of test compound−blank)÷(absorbance of control group−blank))×100

[2] = test system: MEK1/2 phosphorylation in human colon cancer cell HT-29; assay: Colon cancer cell HT-29 intracellular MEK phosphorylation inhibitory activity in vitro; assay type: cell-based; settings: HT-29 cells; for pIC50: 2 hrs treatment, phosphorylated MEK1/2 Western blot; for inhibition at 0.5 µM: MEK1/2 protein phosphorylation, compound 0.5 μM, read-out: Inhibitory rate (%) at 0.5 μM
Protocol: 500 μL of a cell suspension of human colon cancer cell HT-29 (purchased from American Type Culture Collection (ATCC)) was plated in a 48-well plate (100,000 cells/well), and the cells were cultured overnight at 37° C. in the presence of 5% CO2, treated with a test compound (250 μL/well) diluted in 3-fold dilution series and cultured for 2 hrs. After 2 hrs, the culture medium containing the test compound was removed, and the cells were lysed with SDS sample buffer (100 μL/well) and heated at 95° C. for 5 min. Thereafter, the cells lysed with SDS sample buffer were applied to SDS-PAGE, and the protein was transferred onto Sequi-Blot™ PVDF Membrane (Bio-Rad) by the Western blot method. The PDVF membrane was blocked with a Block-Ace solution (Snow Brand Milk Products Co., Ltd) dissolved in phosphate buffered saline (MP Biochemicals) to 5% W/V, and reacted overnight with anti-phosphorylated MEK1/2 (Ser217/221) (Cell signaling #9121) diluted 1000-fold with phosphate buffered saline containing 0.4% Block-Ace. The membrane was washed with phosphate buffered saline containing 0.1% Tween 20 (Wako Pure Chemical Industries, Ltd.), and reacted at room temperature for 1 hr with HRP labeled rabbit IgG polyclonal antibody (Cell signaling #7074) diluted 1000-fold with phosphate buffered saline containing 0.4% Block-Ace. The membrane was washed in the same manner as above, chemical luminescence of a phosphorylated MEK1/2 protein labeled with the antibody, which was caused by ECL-plus Detection Reagent (Amersham bioscience), was detected by Luminescent Image Analyzer LAS-1000 (FUJIFILM Corporation). Taking the luminescence of the control group free of the test compound as 100%, the concentration (IC50 value) of the compound necessary for inhibiting the residual luminescence to 50% of the control group was calculated. In addition, MEK1/2 protein phosphorylation inhibitory rate (%) of the test compound at compound concentration 0.5 μM was calculated by the following formula. The results are shown in Table 2-B. Inhibitory rate (%)=(1−(luminescence of test compound−blank)÷(luminescence of control group−blank))×100

Sequence of BRAF (V600E) kinase (P15056 457-717 V600E): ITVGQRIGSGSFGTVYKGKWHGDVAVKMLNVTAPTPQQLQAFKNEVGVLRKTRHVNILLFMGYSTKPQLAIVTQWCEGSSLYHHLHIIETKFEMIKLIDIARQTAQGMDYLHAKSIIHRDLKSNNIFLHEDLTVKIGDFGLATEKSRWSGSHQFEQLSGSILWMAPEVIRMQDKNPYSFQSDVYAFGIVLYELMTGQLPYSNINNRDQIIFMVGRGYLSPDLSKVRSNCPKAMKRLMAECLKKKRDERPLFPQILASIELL

| inhibition at 1 µM (BRAF (V600E) kinase) | pIC50 [2] | SMILES | inhibition at 0.5 µM [2] | other results |
| --- | --- | --- | --- | --- |
| 101% | – | CC(=O)Nc1nc2ccc(Oc3cccc(NC(=O)c4cccc(C(C)(C)C#N)c4)c3)c(C#N)c2s1 [Example 11, N-(3-{[2-(acetylamino)-7-cyano-1,3-benzothiazol-6-yl]oxy}phenyl)-3-(1-cyano-1-methylethyl)benzamide] | – | – |
| – | > 6.52 | COC(=O)c1c(Oc2ccc(F)c(NC(=O)Cc3cccc(C(F)(F)F)c3)c2)ccc2nc(NC(=O)C3CC3)sc12 [Example 54, methyl 2-[(cyclopropylcarbonyl)amino]-6-[4-fluoro-3-({[3-(trifluoromethyl)phenyl]acetyl}amino)phenoxy]-1,3-benzothiazole-7-carboxylate] | 100% | – |
| – | > 6.52 | N#Cc1c(Oc2ccc(F)c(NC(=O)Nc3ccc(C(F)(F)F)cc3)c2)ccc2nc(NC(=O)C3CC3)sc12 [Example 32, N-{7-cyano-6-[4-fluoro-3-({[4-(trifluoromethyl)phenyl]carbamoyl}amino)phenoxy]-1,3-benzothiazol-2-yl}cyclopropanecarboxamide] | 83% | – |
| – | > 6.52 | CC(=O)Nc1nc2ccc(Oc3cccc(NC(=O)Nc4ccc(C(C)(C)C)cc4)c3)c(C#N)c2s1 [Example 22, N-[6-(3-{[(4-tert-butylphenyl)carbamoyl]amino}phenoxy)-7-cyano-1,3-benzothiazol-2-yl]acetamide] | 83% | – |
| 101% | – | CC(C)(C#N)c1cccc(C(=O)Nc2cccc(Oc3ccc4nc(NC(=O)C5CC5)sc4c3C#N)c2)c1 [Example 1, N-[3-({7-cyano-2-[(cyclopropylcarbonyl)amino]-1,3-benzothiazol-6-yl}oxy)phenyl]-3-(1-cyano-1-methylethyl)benzamide] | – | – |
| 100% | – | CC(=O)Nc1nc2ccc(Oc3cccc(NC(=O)Nc4ccc(Cl)c(C(F)(F)F)c4)c3)c(C#N)c2s1 [Example 21, N-{6-[3-({[4-chloro-3-(trifluoromethyl)phenyl]carbamoyl}amino)phenoxy]-7-cyano-1,3-benzothiazol-2-yl}acetamide] | – | – |

Continued, compound first:

| SMILES | inhibition at 1 µM (BRAF (V600E) kinase) | pIC50 [2] | inhibition at 0.5 µM [2] | other results |
| --- | --- | --- | --- | --- |
| CC(=O)Nc1nc2ccc(Oc3cccc(NC(=O)C(C)(C)c4cccc(Br)c4)c3)c(C#N)c2s1 [Example 13, N-(3-{[2-(acetylamino)-7-cyano-1,3-benzothiazol-6-yl]oxy}phenyl)-2-(3-bromophenyl)-2-methylpropanamide] | 98% | – | – | – |
| N#Cc1c(Oc2cccc(NC(=O)Nc3ccc(C(F)(F)F)nc3)c2)ccc2nc(NC(=O)C3CC3)sc12 [Example 51, N-{7-cyano-6-[3-({[6-(trifluoromethyl)pyridin-3-yl]carbamoyl}amino)phenoxy]-1,3-benzothiazol-2-yl}cyclopropanecarboxamide] | 100% | – | – | – |
| CC(C)(C#N)c1cccc(C(=O)Nc2cccc(Oc3ccc4nc(NC(=O)C5CC5)sc4c3N)c2)c1 [Example 43, N-[3-({7-amino-2-[(cyclopropylcarbonyl)amino]-1,3-benzothiazol-6-yl}oxy)phenyl]-3-(1-cyano-1-methylethyl)benzamide] | – | – | – | pIC50 [1]: > 6.30; inhibition at 10 µM [1]: 100% |
| CC(C)(C#N)c1cccc(C(=O)Nc2cccc(Oc3ccc4nc(NC(=O)C5CC5)sc4c3Cl)c2)c1 [Example 44, N-[3-({7-chloro-2-[(cyclopropylcarbonyl)amino]-1,3-benzothiazol-6-yl}oxy)phenyl]-3-(1-cyano-1-methylethyl)benzamide] | – | – | – | pIC50 [1]: > 6.30; inhibition at 10 µM [1]: 93% |
| CC(=O)Nc1nc2ccc(Oc3cccc(NC(=O)Cc4cccc(C(F)(F)F)c4)c3)c(C#N)c2s1 [Example 49, N-(3-{[2-(acetylamino)-7-cyano-1,3-benzothiazol-6-yl]oxy}phenyl)-2-[3-(trifluoromethyl)phenyl]acetamide] | – | > 6.52 | 63% | – |
| N#Cc1c(Oc2cccc(NC(=O)Nc3ccc(C(F)(F)F)cn3)c2)ccc2nc(NC(=O)C3CC3)sc12 [Example 52, N-{7-cyano-6-[3-({[5-(trifluoromethyl)pyridin-2-yl]carbamoyl}amino)phenoxy]-1,3-benzothiazol-2-yl}cyclopropanecarboxamide] | 98% | – | – | – |
| CC(C)(C#N)c1cccc(C(=O)Nc2cccc(Oc3ccc4nc(NC(=O)C5CC5)sc4c3[N+](=O)[O-])c2)c1 [Example 37, 3-(1-cyano-1-methylethyl)-N-[3-({2-[(cyclopropylcarbonyl)amino]-7-nitro-1,3-benzothiazol-6-yl}oxy)phenyl]benzamide] | – | – | – | pIC50 [1]: > 6.30; inhibition at 10 µM [1]: 93% |
